Experimental data published in patent publication US8247530B2, “N-alkylated cyclic peptide melanocortin agonists” (Palatin Technologies, Inc., priority 2005, dated 2012).
Where a SMILES comes first, the peptide text is derived from it. Bridges are numbered along the chain shown (N, C = ends). [ ]: non-standard residue; d: D form. 1Nal = N[C@@H](Cc1cccc2ccccc12)C(=O)O; Nle = CCCC[C@H](N)C(=O)O

Legend:
[1] = target: T1, MC1-R (B-16 mouse melanoma cells) (Mus musculus, UniProt Q01727); test: Competitive inhibition binding assay using [I125]-NDP-α-MSH, MC1-R; conditions: radioligand [I125]-NDP-α-MSH, B-16 mouse melanoma membranes
T1 construct: B-16 mouse melanoma cells (containing MC1-R); endogenous in cells; host or cells: B-16 mouse melanoma cells
Procedure: The assay mixture was incubated for 60 minutes at 37° C., then filtered and the membranes washed three times with ice cold phosphate buffered saline. The filter was dried and counted in a gamma counter for remaining radioactivity bound to the membranes. […] Each assay was conducted in triplicate.

[2] = target: T2, MC3-R (Homo sapiens, UniProt P41968); test: Competitive inhibition binding assay using [I125]-NDP-α-MSH, hMC3-R; conditions: radioligand [I125]-NDP-α-MSH, HEK-293 membranes; read-out: Ki (NDP-α-MSH) MC3-R
T2 construct: expressed in transfected cells; host or cells: HEK-293
Procedure: (§1) The assay tube also contained a chosen concentration of the test peptide of this invention, typically a 1 μM concentration, for determining its efficacy in inhibiting the binding of [I^125]NDP-α-MSH to the receptor.
(§2) The assay mixture was incubated for 60 minutes at 37° C., then filtered and the membranes washed three times with ice cold phosphate buffered saline. The filter was dried and counted in a gamma counter for remaining radioactivity bound to the membranes. 100% specific binding was defined as the difference in radioactivity (cpm) bound to cell membranes in the absence and presence of 1 μM NDP-α-MSH. […] Each assay was conducted in triplicate. The Ki (nM) of certain peptides of the invention were determined using similar assay protocols and testing peptides over a wider dose range.

[3] = target: T3, MC4-R (Homo sapiens, UniProt P32245); test: Competitive inhibition binding assay using [I125]-NDP-α-MSH, hMC4-R; conditions: radioligand [I125]-NDP-α-MSH, HEK-293 membranes; read-out: Ki (NDP-α-MSH) MC4-R
T3 construct: expressed in transfected cells; host or cells: HEK-293
Procedure: as §1, §2

[4] = target: T4, hMC5-R (Homo sapiens, UniProt P33032); test: Competitive inhibition binding assay using [I125]-NDP-α-MSH, hMC5-R; conditions: radioligand [I125]-NDP-α-MSH, HEK-293 membranes; read-out: Ki (NDP-α-MSH) MC5-R
T4 construct: expressed in transfected cells; host or cells: HEK-293
Procedure: as §1, §2

[5] = target: T3, MC4-R; test: Competitive inhibition Ki (AgRP), MC4-R; format: binding; conditions: AgRP as competing ligand
[6] = target: T1, MC1-R (B-16 mouse melanoma cells); test: cAMP functional assay for agonist/antagonist status, MC1-R; format: cell-based; conditions: for EC50: cAMP accumulation; for agonist/antagonist status as to MC1-R: cAMP assay; for efficacy relative to NDP-α-MSH, MC1-R: cAMP response ratio to NDP-α-MSH
Procedure: Data analysis and EC50 values were determined using nonlinear regression analysis with Prism Graph-Pad software.
The agonist/antagonist status with respect to MC1-R, MC4-R and MC5-R of certain peptides of the invention was determined.

[7] = target: T5, hMC3-R (HEK-293 cells) (Homo sapiens, UniProt P41968); test: cAMP functional assay for agonist/antagonist status, MC3-R; format: cell-based; conditions: for EC50: cAMP accumulation; for agonist/antagonist status as to MC3-R: cAMP assay; for efficacy relative to NDP-α-MSH, MC3-R: cAMP response ratio to NDP-α-MSH
T5 construct: expressed in transfected cells; host or cells: HEK-293
Procedure: (§3) Functional evaluation of peptides at melanocortin receptors was performed by measuring the accumulation of intracellular cAMP in HEK-293 cells expressing hMC3-R, hMC4-R or hMC5-R, and in B-16 mouse melanoma cells expressing MC1-R. Cells suspended in Earle's Balanced Salt Solution containing 10 mM HEPES (pH 7.5), 5 mM MgCl2, 1 mM glutamine, 0.5% albumin and 0.3 mM 3-isobutyl-1-methyl-xanthine, a phosphodiesterase inhibitor, were plated in 96 well plates at a density of 0.5×10^5 cells per well. Cells were incubated with the test peptides in the presence or absence of NDP-α-MSH for 1 hour at 37° C. cAMP levels in the cell lysates were measured using an EIA kit (Amersham). Data analysis and EC50 values were determined using nonlinear regression analysis with Prism Graph-Pad software.
(§4) The agonist/antagonist status with respect to MC1-R, MC4-R and MC5-R of certain peptides of the invention was determined. Antagonistic activity was determined by measuring the inhibition of α-MSH-induced or NDP-α-MSH-induced cAMP levels following exposure to the peptides as in the preceding descriptions.

[8] = target: T6, hMC4-R (HEK-293 cells) (Homo sapiens, UniProt P32245); test: cAMP functional assay for agonist/antagonist status, MC4-R; format: cell-based; conditions: for EC50: cAMP accumulation; for agonist/antagonist status as to MC4-R: cAMP assay; for efficacy relative to NDP-α-MSH, MC4-R: cAMP response ratio to NDP-α-MSH
T6 construct: expressed in transfected cells; host or cells: HEK-293
Procedure: as §3, §4
Evaluation of the molecules to elicit a functional response in HEK-293 cells expressing hMC4-R for agonistic activity was done by measuring the accumulation of intracellular cAMP following treatment. Confluent HEK-293 cells over-expressing MC4-R receptors were detached by enzyme free cell suspension buffer. Cells were suspended in Earle's Balanced Salt Solution containing 10 mM HEPES (pH 7.5), 1 mM MgCl2, 1 mM glutamine, 0.5% albumin and 0.3 mM 3-isobutyl-1-methyl-[…]. The cells were plated in a 96 well plate at a density of 0.5×10^5 cells per well and pre-incubated for 60 minutes. The cells were then challenged with the test peptides dissolved in dimethylsulfoxide (DMSO) at a concentration range of 0.05-5000 nM in a total assay volume of 200 μL for 1 hour at 37° C. The concentration of DMSO was held at 1% in the assay mixture. NDP-α-MSH was used as the reference agonist. At the end of the incubation period the cells were disrupted by the addition of 50 μL lysis buffer from the cAMP EIA kit (Amersham). Complete rupture of the cells was ensured by pipetting the cells. cAMP levels in the cell lysates were measured after appropriate dilution using the EIA kit (Amersham) method. Data analysis and EC50 values were determined by using nonlinear regression analysis with the Prism Graph-Pad software.

[9] = test system: male Sprague-Dawley rats; test: Penile erection induction in male rats; format: in vivo, rat; conditions: 1000 μg/kg IV, groups of 6 rats, one hour observation
Procedure: The ability of peptides to induce penile erection (PE) in male rats was evaluated with selected peptides. Male Sprague-Dawley rats weighing 200-250 g were kept on a 12 hour on/off light cycle with food and water ad libitum. All behavioral studies were performed between 10 a.m. and 5 p.m. Groups of 4-8 rats were administered peptides at a variety of doses via an intravenous (IV) route, and may alternatively be administered peptide by an intracerebroventricular (ICV) route. Immediately after treatment, rats were placed into individual polystyrene cages (27 cm long, 16 cm wide, and 25 cm high) for behavioral observation. […] For rats administered peptide by an ICV routes, rats are observed for two hours.
Selected peptides were tested as in Example 5. Peptide was administered by IV routes, and used at dose levels ranging from 1 μg/kg to 1000 μg/kg.

[10] = target: T2, MC3-R; test: Competitive inhibition Ki (AgRP), MC3-R; format: binding; conditions: AgRP as competing ligand
Procedure: as §2

T2 sequence (P41968 whole entry): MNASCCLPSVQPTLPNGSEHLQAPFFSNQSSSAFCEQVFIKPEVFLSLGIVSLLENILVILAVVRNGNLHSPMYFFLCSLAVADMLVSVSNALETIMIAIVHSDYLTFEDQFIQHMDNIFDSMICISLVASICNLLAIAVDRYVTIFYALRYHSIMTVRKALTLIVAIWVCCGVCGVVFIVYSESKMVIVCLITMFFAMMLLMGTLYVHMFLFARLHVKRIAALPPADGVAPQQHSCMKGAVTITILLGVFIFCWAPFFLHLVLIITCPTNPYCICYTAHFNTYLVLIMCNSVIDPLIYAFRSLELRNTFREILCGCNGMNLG
T5 sequence (P41968 whole entry): as above
T1 sequence (Q01727 whole entry): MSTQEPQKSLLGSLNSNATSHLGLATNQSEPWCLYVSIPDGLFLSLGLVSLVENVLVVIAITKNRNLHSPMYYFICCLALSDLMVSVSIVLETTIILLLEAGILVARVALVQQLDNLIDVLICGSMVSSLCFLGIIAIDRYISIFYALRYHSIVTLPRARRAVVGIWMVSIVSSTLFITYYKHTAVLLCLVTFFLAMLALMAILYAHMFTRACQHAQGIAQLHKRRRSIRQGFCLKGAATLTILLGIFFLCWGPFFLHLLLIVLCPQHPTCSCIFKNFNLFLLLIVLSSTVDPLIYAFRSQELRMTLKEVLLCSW
T4 sequence (P33032 whole entry): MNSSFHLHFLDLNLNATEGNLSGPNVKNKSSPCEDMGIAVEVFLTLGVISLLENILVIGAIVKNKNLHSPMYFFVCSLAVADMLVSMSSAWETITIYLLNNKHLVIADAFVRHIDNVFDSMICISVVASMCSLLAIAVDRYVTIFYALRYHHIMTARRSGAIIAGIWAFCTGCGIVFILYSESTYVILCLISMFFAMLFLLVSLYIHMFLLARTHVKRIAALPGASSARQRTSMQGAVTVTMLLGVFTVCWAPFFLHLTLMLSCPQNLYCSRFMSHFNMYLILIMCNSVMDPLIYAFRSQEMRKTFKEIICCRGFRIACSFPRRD
T3 sequence (P32245 whole entry): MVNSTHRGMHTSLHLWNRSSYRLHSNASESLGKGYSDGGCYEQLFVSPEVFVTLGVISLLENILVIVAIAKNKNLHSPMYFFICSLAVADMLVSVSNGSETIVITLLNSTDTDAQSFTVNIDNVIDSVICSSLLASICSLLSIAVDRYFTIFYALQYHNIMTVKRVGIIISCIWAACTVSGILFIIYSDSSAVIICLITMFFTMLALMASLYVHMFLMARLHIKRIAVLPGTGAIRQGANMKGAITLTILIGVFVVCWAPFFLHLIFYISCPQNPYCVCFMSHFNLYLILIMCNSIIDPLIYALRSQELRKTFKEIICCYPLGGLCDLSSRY
T6 sequence (P32245 whole entry): as above

Ki [1] [nM]	Ki [2] [nM]	Ki [3] [nM]	Ki [4] [nM]	Ki [5] [nM]	EC50 [6] [nM]	efficacy relative to NDP-α-MSH, MC1-R [6]	EC50 [7] [nM]	efficacy relative to NDP-α-MSH, MC3-R [7]	EC50 [8] [nM]	efficacy relative to NDP-α-MSH, MC4-R [8]	Ki [10] [nM]	SMILES	agonist/antagonist status as to MC1-R [6]	agonist/antagonist status as to MC3-R [7]	agonist/antagonist status as to MC4-R [8]	rats exhibiting at least one PE [9] [%]
2	154	12	> 1000	18	151	0.7	1250	1.3	5	0.6		CC(=O)N[C@H]1CC(=O)NCCCC[C@@H](C(=O)N(C)C)NC(=O)[C@H](Cc2c[nH]c3ccccc23)NC(=O)[C@H](CCCNC(=N)N)NC(=O)[C@@H](Cc2ccccc2)NC(=O)[C@H](Cc2c[nH]cn2)NC1=O [Example 13, Ac-cyclo(-Asp-His-D-Phe-Arg-Trp-Lys)-N(CH3)2]	agonist (response ratio compared to NDP-α-MSH of 0.7 and above were classified as full agonists)	agonist (response ratio compared to NDP-α-MSH of 0.7 and above were classified as full agonists)	partial agonist (Peptides with a ratio from 0.1 to 0.7 were classified as partial agonists)	100
166	886	45	> 2000	71					698	0.7	> 10000	CCNC(=O)[C@@H]1CCCCNC(=O)C[C@H](NC(C)=O)C(=O)N[C@@H](Cc2c[nH]c3ccccc23)C(=O)N[C@H](Cc2ccccc2)C(=O)N[C@@H](CCCNC(=N)N)C(=O)N[C@@H](Cc2cccc3ccccc23)C(=O)N1 [Example 14, Ac-cyclo(-Asp-Trp-D-Phe-Arg-Nal 1-Lys)-NH—CH2—CH3] (Ac-DW[dF]R[1Nal]K-NHEt; lactam 1-6 (inferred))	inactive	inactive	agonist (response ratio compared to NDP-α-MSH of 0.7 and above were classified as full agonists)	
215	964	122	549	233					1540	0.9	> 3000	CC(=O)N[C@H]1CC(=O)NCCCC[C@@H](C(=O)N(C)C)NC(=O)[C@H](Cc2cccc3ccccc23)NC(=O)[C@H](CCCNC(=N)N)NC(=O)[C@@H](Cc2ccccc2)NC(=O)[C@H](Cc2c[nH]c3ccccc23)NC1=O [Example 15, Ac-cyclo(-Asp-Trp-D-Phe-Arg-Nal 1-Lys)-N(CH3)2] (Ac-DW[dF]R[1Nal]K-NMe2; lactam 1-6 (inferred))	inactive	inactive	agonist (response ratio compared to NDP-α-MSH of 0.7 and above were classified as full agonists)	
18	462	157	937	284	6410	0.9	6210	0.8	500	1.1	> 2000	CCNC(=O)[C@@H]1CCCCNC(=O)C[C@H](NC(C)=O)C(=O)N[C@@H](Cc2c[nH]cn2)C(=O)N[C@H](Cc2ccccc2)C(=O)N[C@@H](CCCNC(=N)N)C(=O)N[C@@H](Cc2cccc3ccccc23)C(=O)N1 [Example 16, Ac-cyclo(-Asp-His-D-Phe-Arg-Nal 1-Lys)-NH—CH2—CH3] (Ac-DH[dF]R[1Nal]K-NHEt; lactam 1-6 (inferred))	agonist (response ratio compared to NDP-α-MSH of 0.7 and above were classified as full agonists)	agonist (response ratio compared to NDP-α-MSH of 0.7 and above were classified as full agonists)	agonist (response ratio compared to NDP-α-MSH of 0.7 and above were classified as full agonists)	
40	> 10000	92	> 10000		2360	1.0	> 1000	0.4	91	0.93		CC(=O)N[C@H]1CC(=O)NCCCC[C@@H](C(=O)N(C)C)NC(=O)[C@H](Cc2cccc3ccccc23)NC(=O)[C@H](CCCNC(=N)N)NC(=O)[C@@H](Cc2ccccc2)NC(=O)[C@H](Cc2c[nH]cn2)NC1=O [Example 17, Ac-cyclo(-Asp-His-D-Phe-Arg-Nal 1-Lys)-N(CH3)2] (Ac-DH[dF]R[1Nal]K-NMe2; lactam 1-6 (inferred))	agonist (response ratio compared to NDP-α-MSH of 0.7 and above were classified as full agonists)	partial agonist (Peptides with a ratio from 0.1 to 0.7 were classified as partial agonists)	agonist (response ratio compared to NDP-α-MSH of 0.7 and above were classified as full agonists)	100
3				26	397	0.3	1820	0.2		0.6		CCCC[C@H](NC(C)=O)C(=O)N[C@H]1CC(=O)NCCCC[C@@H](C(=O)NCC)NC(=O)[C@H](Cc2cccc3ccccc23)NC(=O)[C@H](CCCNC(=N)N)NC(=O)[C@@H](Cc2ccccc2)NC(=O)[C@H](Cc2c[nH]c3ccccc23)NC1=O [Example 18, Ac-Nle-cyclo(-Asp-Trp-D-Phe-Arg-Nal 1-Lys)-NH—CH2—CH3] (Ac-[Nle]DW[dF]R[1Nal]K-NHEt; lactam 2-7 (inferred))	partial agonist (Peptides with a ratio from 0.1 to 0.7 were classified as partial agonists)	partial agonist (Peptides with a ratio from 0.1 to 0.7 were classified as partial agonists)	partial agonist (Peptides with a ratio from 0.1 to 0.7 were classified as partial agonists)	
